Ends that are not written are not given here.
Assays:
PGT122 [1] = experiment: Bead-based radiometric binding assay of clones prepared as cDNA/mRNA-glycopeptide fusions; settings: 2K CPM per sample, Protein G beads, LSC, preliminary
Experimental: antibodies, spun down briefly, placed on a magnet for 1 minute, and the eluent was transferred to an individual 0.2 mL PCR tube. The beads were washed with 50 µL of denaturing elute buffer, and the wash was placed into the same tube as the eluent. The combined eluent and wash represented the “bound” fraction. The beads were resuspended in 50 µL of denaturing elute buffer, vortexed, and directly placed into a vial with liquid scintillation cocktail for radioactivity measurements, though it was not included in calculations of fraction bound. Each of the tubes with the “unbound” and “bound” fractions were placed into vials for LSC. The tube in which the antibody and peptides were incubated were also measured by LSC, but not included in calculations of fraction bound. Fraction bound values for each antibody concentration after background adjustment were input into KaleidaGraph 4.1.1 for curve fitting to a […]
5. Clones Prepared as cDNA/mRNA-glycopeptide Fusions
Selected clones were also prepared as cDNA/mRNA-glycopeptide fusions for binding analysis. RNA (450-1000 pmol) was photo-crosslinked as described in Section IV.A.2 but with 10 µM transcribed RNA and 15 µM XL-PSO in 1X XL Buffer for annealing, and dilution to 100 µL for irradiation at 365 nm. XL-RNA was then purified by ethanol precipitation and 5% denaturing urea-PAGE with electroelution. Purified XL-RNA was translated in the presence of PDF/MAP and 3H-histidine for radiolabeling. Crude translation reactions were captured on Pierce™ Streptavidin UltraLink™ Resin (Thermo Scientific), subjected to reverse transcription, and cyclized as described for selection. Fusions were then washed and photo-eluted with 1X selection buffer instead of 0.2% (v/v) […]. […]
reverse transcription in preparation for photo-elution. Note: 2U3 was also cyclized despite having only one cysteine residue to better mimic its structure during selection. Fusions were then passed through 0.22 µm Ultrafree-MC Centrifugal Filters (MilliporeSigma), buffer exchanged by ethanol precipitation, and subjected to click reaction (5 µL) with Man9(GlcNAc)2-azide as described in Section II.A.8. Binding assays were performed analogously as with […]
as free peptides and cDNA/mRNA-glycopeptide fusions.
Name Click KD Ratio (No click : Click) KD Ratio (No click : Click) […]
a 2U3 was cyclized as a fusion but not as a free peptide.

PGT122 [2] = experiment: Bead-based radiometric binding assay of ribosomally synthesized free peptides; settings: free 3H-histidine-labelled peptide, no click glycosylation; 0, 100, 200, 400 nM antibody, 1 h room temperature, Protein G beads, LSC; Michaelis-Menten fit; preliminary
Experimental: The protocol used for cyclization while captured on resin was as follows: To 20 µL of crude translated peptide was added 80 µL of bind buffer with BME (50 mM Tris-HCl, pH 7.8, 300 mM NaCl, 5 mM BME) and 20 µL of HisPur™ Ni-NTA Resin (ThermoScientific). The mixture was tumbled at room temperature for 1 hour. Next, the mixture was spun down at 17,000 ×g, and the supernatant was carefully removed from the loosely-pelleted agarose.
The resin was washed three times with 160 µL of cyclization wash buffer with TCEP (50 mM Tris-HCl, pH 8.0, […]). To the resin was then added 160 µL of free peptide cyclization buffer (50 mM Tris-HCl, pH 8.0, 300 mM NaCl, 0.5 mM TCEP, 3.3 mM m-dibromoxylene, 33% (v/v) MeCN), and the mixture was covered in foil and tumbled at room temperature for 30 minutes. The supernatant was removed and 160 µL of cyclization wash buffer with BME (50 mM Tris-HCl, pH 8.0, 300 mM NaCl, 10 mM BME, 33% (v/v) MeCN) was added. The suspension was tumbled at room temperature for 10 minutes without aluminum foil to quench the reaction. The reaction was spun down, and the supernatant was removed. Next, the resin was resuspended in wash buffer (50 mM Tris-HCl, pH 7.8, 5 mM BME) and transferred to a 0.22 µm Ultrafree-MC Centrifugal Filter (MilliporeSigma). The tube was rinsed with 80 µL of wash buffer, and the rinse was added to the filter. The filter was then spun down at 10,000 ×g for 1 minute. The resin in the filter was washed twice with 160 µL of wash buffer. To elute the peptide, 20 µL 0.2% (v/v) TFA was added to the resin and allowed to sit at room temperature for 2 minutes before spinning down and collecting in a new tube. The elution step was carried out once more, with the eluent collected separately.
4. Radioactive Peptides for Bead-based Radiometric Binding Assay
For binding analysis, translation (50 µL) was carried out in the presence of PDF/MAP and 3H-histidine for radiolabeling. The crude peptides were purified by Ni-NTA agarose and, if the sequence contained two cysteine residues, was cyclized while captured on the Ni-NTA resin. The peptide eluents were combined and dialyzed as follows: To the combined eluents was added a solution of Triton X-100 in water for a final concentration of 0.1%.
Next, the peptides were dialyzed against 0.1% (v/v) Triton X-100 using a Slide-A-Lyzer™ MINI device (0.1 mL capacity, 3.5 kDa MWCO) (Thermo Scientific) at room temperature overnight. The dialyzed peptides were retrieved from the devices. The peptide solutions were concentrated to dryness by speedvac for the click reaction. […]
room temperature. While tumbling, Dynabeads™ Protein G (Invitrogen) were equilibrated with 1X selection buffer as follows: Steps were carried out using a multi-channel pipettor where possible. For each sequence, 8 µL of Protein G bead suspension was transferred to a 0.2 mL PCR tube in a strip. Next, 64 µL (8 bead vol.) of 1X selection buffer was added to the beads. The mixture was resuspended by gently vortexing, spun down briefly, and placed on a magnet for 1 minute. The supernatant was removed, and this wash was repeated two more times. The final supernatant was removed just prior to addition of the incubated peptide/antibody mixture. The mixture was allowed to tumble at room temperature for 30 minutes to capture antibodies and bound peptides. Next, the suspension was briefly spun down, placed on a magnet, and the supernatant was transferred to an individual 0.2 mL PCR tube. To wash the beads, 16 µL of 1X selection buffer was added, gently vortexed, spun down briefly, placed on a magnet for 1 minute, and the wash was transferred to the same PCR tube as the supernatant. This wash step was repeated twice more for a total of three washes, saved altogether with the supernatant as the “unbound” fraction. The beads were then resuspended in 50 µL of denaturing elute buffer. The suspension was heated at 95 °C for 5 minutes to denature […]

HIV pseudovirus panel = settings: ref number not given, cited from earlier work
Text: We have sought to mimic HMP epitopes without using either the entire Env protein, which contains a plethora of “distracting” epitopes that easily elicit off-target antibodies; − or short glycopeptides directly derived from the Env sequence, which may not sufficiently recapitulate the HMP structure without the conformational support of the remaining Env protein. Aiming to design glycostructures that better mimic the glycan presentation in the HMP, we have pioneered various techniques for the directed evolution of DNA, , RNA, F-RNA, or peptide-supported , glycan clusters.

[3] = cDNA/mRNA-glycopeptide fusion, click-glycosylated with Man9(GlcNAc)2-azide
[4] = cDNA/mRNA-peptide fusion, no click glycosylation
[5] = diverse/representative HIV pseudovirus panel

Row | Substance | Kd (PGT122 [1]; [3]) [µM] | Kd (PGT122 [1]; [4]) [µM] | Kd (PGT122 [2]) [µM] | breadth (fraction of HIV pseudovirus panel neutralized) (HIV pseudovirus panel; [5]) [%] | median IC50 (HIV pseudovirus panel; [5]) [mg/L] | potency (EC50) (HIV pseudovirus panel; neutralization potency) [mg/L]
1 | AKTRTPMNLSGKSNIRYFFTIDNSTMFEDLFMRFPRSKEYHIELEEFKDLIR [2U7] | 0.139 | 0.3 | 1.43 | – | – | –
2 | AHSLFNFQVRLKQLPLDANGAVIGDIRIAECMNHTYTPLTFYIYSNHPTDIQ [GB1, ribosomally synthesized gl-PGT121 selection clone] | – | – | 0.181 | – | – | –
3 | PGT128: broad and very potent HIV bnAb binding the High Mannose Patch | – | – | – | 72 | 0.02 | 0.02
4 | AKTKTYLIRFHLDILPNDNLRSQKIRLIFGDKATVKGMITFLNDSELEWNFE [2U1, ribosomally synthesized PGT122 selection clone, tested with and without click glycosylation] | 0.0298 | 0.0825 | – | – | – | –
5 | ANPRIIFFELSIRNNSLKLLRWHDTQGIFHDSMTELSQHAELPRFKFHSNAA [GU1, ribosomally synthesized gl-PGT121 selection clone] | – | – | 0.156 | – | – | –
6 | AYVISFSIDQPDLDRPNIIRISIGDIRSAKCMKLDTINFAYRDDSSEVCYEK (also: sidechain bridge or staple (positions not given here)) [2B7c, ribosomally synthesized PGT122 selection clone, cyclized] | 0.143 | 0.0662 | 0.0298 | – | – | –
7 | ATLNIFSNFSIEPDSFYEIVLPIGDIRIAPCMSSFNRNGSTNNCYHFEINLF (also: sidechain bridge or staple (positions not given here)) [2B5c, ribosomally synthesized PGT122 selection clone, cyclized] | 0.0859 | 0.315 | 0.212 | – | – | –
8 | AYSIHFVCDINETPTNTSKAIFSIKCDITTPESTTRQLMITKHYHFPPTGTR (also: sidechain bridge or staple (positions not given here)) [2U8c, ribosomally synthesized PGT122 selection clone, cyclized] | 0.0484 | 0.173 | – | – | – | –
9 | ANNFICIRNIGDIRSARCMNVSAGRYAPYREFYFDITYDDFNKNVNIVITPV (also: sidechain bridge or staple (positions not given here)) [2B8c, ribosomally synthesized PGT122 selection clone, cyclized] | 0.108 | 0.176 | – | – | – | –
10 | AFIAYYFDLSQPNLHSPNFTLKIGDIREAQCMLTCDSAKPNPRVVPILALLI (also: sidechain bridge or staple (positions not given here)) [2B3c, ribosomally synthesized PGT122 selection clone, cyclized] | 0.14 | 0.0997 | 4.49 | – | – | –
11 | ALNLYQIVEFTIDESNDIVQLQIGDIRTADCMSLNKECYNIIFFSWDNHGKN (also: sidechain bridge or staple (positions not given here)) [2B4c, ribosomally synthesized PGT122 selection clone, cyclized] | 0.155 | 0.0444 | 0.158 | – | – | –
12 | AQYIDWEIDINQVPNQMNLSKPTWKSDITINKVKWSFYININQASNENTDNI [2U6, ribosomally synthesized PGT122 selection clone] | 0.173 | 0.0967 | 0.166 | – | – | –
13 | AYPVYLRLPIGDIRIASCMFGDEPNTWTRDELNDYFYTESYNPQPITITFKC (also: sidechain bridge or staple (positions not given here)) [2B2c, ribosomally synthesized PGT122 selection clone, cyclized] | 0.116 | 0.089 | 1.65 | – | – | –
14 | ANPSFSVQFIVDLIGPNVMRITLSNKPFATICPITEGESHISKRFNFQLTIS [2U3c, ribosomally synthesized PGT122 selection clone; cyclized as a fusion but not as a free peptide] | 0.449 | 0.281 | – | – | – | –

— article PMC12291119, “In Vitro Selection of Cyclized, Glycosylated Peptide Antigens That Tightly Bind HIV High Mannose Patch Antibodies” (ACS Central Science, 2025)
